How the values were obtained:
Assay in all cases: Kinase selectivity, DiscoverX scanMAX Kinase assay panel (% control)
Type in all cases: binding
[1] = target: T1, kinases of the scanMAX Kinase assay panel (Homo sapiens, UniProt P42684); settings: ABL2; 1 uM
T1 construct: purchased DiscoverX Co. (contract measurement) scanMAX Kinase assay panel
Summary of the method: (§1)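 Read-out is % control, normalised so a positive-control compound sits at 0% and DMSO at 100%: (test − positive)/(negative − positive)×100. Each kinase received the compound at 1 uM in DMSO. A value below 35% counts as activity.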

[2] = target: T2, kinases of the scanMAX Kinase assay panel (Homo sapiens, UniProt Q15746); settings: MYLK; 1 uM
T2 construct: purchased DiscoverX Co. (contract measurement) scanMAX Kinase assay panel
Summary of the method: as §1

[3] = target: T3, kinases of the scanMAX Kinase assay panel (Homo sapiens, UniProt O95382); settings: ASK2; 1 uM
T3 construct: purchased DiscoverX Co. (contract measurement) scanMAX Kinase assay panel
T3 sequence (O95382 1-1288): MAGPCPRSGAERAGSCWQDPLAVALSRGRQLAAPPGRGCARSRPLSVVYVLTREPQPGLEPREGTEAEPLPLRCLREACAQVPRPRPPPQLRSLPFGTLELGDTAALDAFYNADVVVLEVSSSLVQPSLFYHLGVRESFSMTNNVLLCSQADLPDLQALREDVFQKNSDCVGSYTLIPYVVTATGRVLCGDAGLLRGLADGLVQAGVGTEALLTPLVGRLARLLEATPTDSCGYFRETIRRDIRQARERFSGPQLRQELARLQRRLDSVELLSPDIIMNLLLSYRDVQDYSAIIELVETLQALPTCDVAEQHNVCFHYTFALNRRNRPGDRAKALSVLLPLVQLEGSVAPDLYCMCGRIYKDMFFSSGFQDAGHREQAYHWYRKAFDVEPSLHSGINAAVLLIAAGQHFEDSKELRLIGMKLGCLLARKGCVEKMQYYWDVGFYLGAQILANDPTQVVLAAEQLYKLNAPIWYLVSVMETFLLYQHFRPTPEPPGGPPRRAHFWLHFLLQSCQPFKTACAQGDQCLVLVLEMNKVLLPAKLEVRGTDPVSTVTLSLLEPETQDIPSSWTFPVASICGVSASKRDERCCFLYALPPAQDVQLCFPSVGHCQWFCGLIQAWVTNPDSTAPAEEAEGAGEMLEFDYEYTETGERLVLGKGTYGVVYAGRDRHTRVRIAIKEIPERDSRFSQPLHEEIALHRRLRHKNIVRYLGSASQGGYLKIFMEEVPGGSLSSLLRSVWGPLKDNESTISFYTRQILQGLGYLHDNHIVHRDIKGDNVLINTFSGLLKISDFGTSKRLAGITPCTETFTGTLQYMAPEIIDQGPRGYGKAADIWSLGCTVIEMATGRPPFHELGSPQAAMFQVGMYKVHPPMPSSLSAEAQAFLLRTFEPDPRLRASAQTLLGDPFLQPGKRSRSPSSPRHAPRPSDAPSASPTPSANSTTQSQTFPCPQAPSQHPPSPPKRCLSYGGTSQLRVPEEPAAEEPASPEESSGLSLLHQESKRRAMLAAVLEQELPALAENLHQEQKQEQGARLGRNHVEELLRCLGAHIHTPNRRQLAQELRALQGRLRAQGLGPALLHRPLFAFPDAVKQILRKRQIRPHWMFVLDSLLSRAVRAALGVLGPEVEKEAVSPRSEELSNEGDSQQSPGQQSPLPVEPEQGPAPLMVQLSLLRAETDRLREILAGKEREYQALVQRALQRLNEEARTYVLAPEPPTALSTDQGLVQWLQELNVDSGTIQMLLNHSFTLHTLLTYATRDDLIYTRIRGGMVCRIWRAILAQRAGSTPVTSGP
Summary of the method: as §1

[4] = target: T4, kinases of the scanMAX Kinase assay panel (Homo sapiens, UniProt O14757); settings: CHEK1; 1 uM
T4 construct: purchased DiscoverX Co. (contract measurement) scanMAX Kinase assay panel
T4 sequence (O14757 1-476): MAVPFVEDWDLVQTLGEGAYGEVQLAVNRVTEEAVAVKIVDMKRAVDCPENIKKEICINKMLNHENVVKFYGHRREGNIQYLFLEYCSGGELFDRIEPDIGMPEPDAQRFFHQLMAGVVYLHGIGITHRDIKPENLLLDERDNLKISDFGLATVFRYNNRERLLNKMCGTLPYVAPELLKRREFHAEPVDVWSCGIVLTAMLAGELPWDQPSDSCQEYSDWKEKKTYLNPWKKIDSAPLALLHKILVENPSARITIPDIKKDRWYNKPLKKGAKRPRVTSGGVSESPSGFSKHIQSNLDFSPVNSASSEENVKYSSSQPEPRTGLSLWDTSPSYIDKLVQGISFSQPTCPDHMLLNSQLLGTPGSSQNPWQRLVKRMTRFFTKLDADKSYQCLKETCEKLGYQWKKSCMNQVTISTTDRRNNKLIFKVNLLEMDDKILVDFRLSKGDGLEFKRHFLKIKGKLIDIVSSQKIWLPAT
Summary of the method: as §1

[5] = target: T5, kinases of the scanMAX Kinase assay panel (Homo sapiens, UniProt Q9BX84); settings: kinase TRPM6; 1 uM in DMSO
T5 construct: purchased DiscoverX Co. (contract measurement) scanMAX Kinase assay panel
Summary of the method: as §1

[6] = target: T6, kinases of the scanMAX Kinase assay panel (Homo sapiens, UniProt Q9UPE1); settings: kinase SRPK3; 1 uM in DMSO
T6 construct: purchased DiscoverX Co. (contract measurement) scanMAX Kinase assay panel
Summary of the method: as §1

T2 sequence (Q15746 whole entry): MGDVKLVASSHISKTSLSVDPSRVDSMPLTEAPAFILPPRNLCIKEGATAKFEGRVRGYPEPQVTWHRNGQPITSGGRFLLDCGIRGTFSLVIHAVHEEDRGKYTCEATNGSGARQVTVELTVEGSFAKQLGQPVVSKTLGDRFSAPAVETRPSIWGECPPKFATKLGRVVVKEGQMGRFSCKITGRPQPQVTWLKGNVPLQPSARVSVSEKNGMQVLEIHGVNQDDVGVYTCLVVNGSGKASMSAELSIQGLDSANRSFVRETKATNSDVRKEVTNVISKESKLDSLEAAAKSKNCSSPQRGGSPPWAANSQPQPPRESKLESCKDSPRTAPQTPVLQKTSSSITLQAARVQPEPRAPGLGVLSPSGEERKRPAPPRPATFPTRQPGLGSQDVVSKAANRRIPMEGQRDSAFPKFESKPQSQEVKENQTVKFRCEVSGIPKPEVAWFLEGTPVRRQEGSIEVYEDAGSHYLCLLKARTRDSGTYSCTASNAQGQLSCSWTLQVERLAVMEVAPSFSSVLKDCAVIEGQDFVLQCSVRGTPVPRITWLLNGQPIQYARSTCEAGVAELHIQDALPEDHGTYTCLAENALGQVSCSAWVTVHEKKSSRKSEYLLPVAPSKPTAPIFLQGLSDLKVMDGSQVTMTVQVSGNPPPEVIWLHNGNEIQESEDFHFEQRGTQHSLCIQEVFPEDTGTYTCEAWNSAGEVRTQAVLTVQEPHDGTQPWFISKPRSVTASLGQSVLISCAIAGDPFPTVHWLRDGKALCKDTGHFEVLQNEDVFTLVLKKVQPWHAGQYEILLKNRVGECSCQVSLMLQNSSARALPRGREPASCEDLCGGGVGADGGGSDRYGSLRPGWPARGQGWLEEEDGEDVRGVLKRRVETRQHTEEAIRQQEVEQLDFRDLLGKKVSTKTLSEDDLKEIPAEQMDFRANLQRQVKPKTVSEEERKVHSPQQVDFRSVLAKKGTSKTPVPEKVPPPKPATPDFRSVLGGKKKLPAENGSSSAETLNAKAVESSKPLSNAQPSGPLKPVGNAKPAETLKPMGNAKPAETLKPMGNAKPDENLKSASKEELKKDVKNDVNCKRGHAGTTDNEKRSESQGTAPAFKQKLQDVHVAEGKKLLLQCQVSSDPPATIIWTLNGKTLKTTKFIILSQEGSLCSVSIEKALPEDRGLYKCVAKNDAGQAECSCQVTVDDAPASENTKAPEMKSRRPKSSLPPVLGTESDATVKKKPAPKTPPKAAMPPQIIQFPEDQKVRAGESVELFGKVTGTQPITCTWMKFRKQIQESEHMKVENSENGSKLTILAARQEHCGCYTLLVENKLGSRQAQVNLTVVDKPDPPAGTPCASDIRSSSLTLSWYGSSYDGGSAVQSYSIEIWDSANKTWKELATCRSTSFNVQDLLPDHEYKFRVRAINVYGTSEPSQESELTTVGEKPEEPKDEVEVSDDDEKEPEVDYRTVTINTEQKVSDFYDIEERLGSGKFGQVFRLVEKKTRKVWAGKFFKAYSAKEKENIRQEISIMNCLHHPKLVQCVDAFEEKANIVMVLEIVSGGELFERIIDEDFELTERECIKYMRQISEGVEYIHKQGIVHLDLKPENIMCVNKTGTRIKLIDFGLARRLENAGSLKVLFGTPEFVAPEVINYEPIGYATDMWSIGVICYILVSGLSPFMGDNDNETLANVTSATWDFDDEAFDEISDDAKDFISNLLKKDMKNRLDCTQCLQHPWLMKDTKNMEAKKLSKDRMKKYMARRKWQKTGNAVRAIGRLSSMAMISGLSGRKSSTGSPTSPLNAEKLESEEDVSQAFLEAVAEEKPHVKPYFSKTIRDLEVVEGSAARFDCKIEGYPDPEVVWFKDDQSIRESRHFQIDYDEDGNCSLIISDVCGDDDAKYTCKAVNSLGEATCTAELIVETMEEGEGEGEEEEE
T1 sequence (P42684 whole entry): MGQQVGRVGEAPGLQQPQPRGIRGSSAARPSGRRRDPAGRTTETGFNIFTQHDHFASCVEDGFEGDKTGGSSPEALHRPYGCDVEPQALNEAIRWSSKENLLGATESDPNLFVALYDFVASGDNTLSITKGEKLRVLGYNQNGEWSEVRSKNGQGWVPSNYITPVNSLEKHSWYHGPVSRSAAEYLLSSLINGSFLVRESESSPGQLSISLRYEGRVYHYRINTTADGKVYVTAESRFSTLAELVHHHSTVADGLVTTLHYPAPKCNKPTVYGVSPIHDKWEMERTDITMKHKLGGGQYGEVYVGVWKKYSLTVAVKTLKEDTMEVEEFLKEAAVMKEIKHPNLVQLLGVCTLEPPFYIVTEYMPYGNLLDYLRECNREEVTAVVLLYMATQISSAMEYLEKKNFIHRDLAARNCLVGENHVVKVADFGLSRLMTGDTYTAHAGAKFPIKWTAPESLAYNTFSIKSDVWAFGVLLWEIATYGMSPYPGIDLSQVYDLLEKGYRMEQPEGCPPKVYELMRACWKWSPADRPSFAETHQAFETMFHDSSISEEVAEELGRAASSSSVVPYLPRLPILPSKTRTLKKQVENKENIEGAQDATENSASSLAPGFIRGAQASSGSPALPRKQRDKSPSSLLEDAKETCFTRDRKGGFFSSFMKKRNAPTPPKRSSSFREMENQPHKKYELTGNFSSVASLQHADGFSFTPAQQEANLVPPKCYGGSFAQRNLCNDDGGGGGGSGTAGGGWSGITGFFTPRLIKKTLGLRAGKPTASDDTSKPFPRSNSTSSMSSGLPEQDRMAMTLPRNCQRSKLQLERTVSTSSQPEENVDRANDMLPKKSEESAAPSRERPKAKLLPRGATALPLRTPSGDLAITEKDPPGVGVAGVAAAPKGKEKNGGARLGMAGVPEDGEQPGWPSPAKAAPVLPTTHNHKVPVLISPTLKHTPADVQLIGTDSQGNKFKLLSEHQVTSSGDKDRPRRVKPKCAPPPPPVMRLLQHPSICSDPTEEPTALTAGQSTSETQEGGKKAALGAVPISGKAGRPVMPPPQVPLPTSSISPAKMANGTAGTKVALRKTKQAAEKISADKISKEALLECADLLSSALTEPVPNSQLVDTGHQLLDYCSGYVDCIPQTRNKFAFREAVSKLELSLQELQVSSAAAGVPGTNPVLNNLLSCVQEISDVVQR
T5 sequence (Q9BX84 whole entry): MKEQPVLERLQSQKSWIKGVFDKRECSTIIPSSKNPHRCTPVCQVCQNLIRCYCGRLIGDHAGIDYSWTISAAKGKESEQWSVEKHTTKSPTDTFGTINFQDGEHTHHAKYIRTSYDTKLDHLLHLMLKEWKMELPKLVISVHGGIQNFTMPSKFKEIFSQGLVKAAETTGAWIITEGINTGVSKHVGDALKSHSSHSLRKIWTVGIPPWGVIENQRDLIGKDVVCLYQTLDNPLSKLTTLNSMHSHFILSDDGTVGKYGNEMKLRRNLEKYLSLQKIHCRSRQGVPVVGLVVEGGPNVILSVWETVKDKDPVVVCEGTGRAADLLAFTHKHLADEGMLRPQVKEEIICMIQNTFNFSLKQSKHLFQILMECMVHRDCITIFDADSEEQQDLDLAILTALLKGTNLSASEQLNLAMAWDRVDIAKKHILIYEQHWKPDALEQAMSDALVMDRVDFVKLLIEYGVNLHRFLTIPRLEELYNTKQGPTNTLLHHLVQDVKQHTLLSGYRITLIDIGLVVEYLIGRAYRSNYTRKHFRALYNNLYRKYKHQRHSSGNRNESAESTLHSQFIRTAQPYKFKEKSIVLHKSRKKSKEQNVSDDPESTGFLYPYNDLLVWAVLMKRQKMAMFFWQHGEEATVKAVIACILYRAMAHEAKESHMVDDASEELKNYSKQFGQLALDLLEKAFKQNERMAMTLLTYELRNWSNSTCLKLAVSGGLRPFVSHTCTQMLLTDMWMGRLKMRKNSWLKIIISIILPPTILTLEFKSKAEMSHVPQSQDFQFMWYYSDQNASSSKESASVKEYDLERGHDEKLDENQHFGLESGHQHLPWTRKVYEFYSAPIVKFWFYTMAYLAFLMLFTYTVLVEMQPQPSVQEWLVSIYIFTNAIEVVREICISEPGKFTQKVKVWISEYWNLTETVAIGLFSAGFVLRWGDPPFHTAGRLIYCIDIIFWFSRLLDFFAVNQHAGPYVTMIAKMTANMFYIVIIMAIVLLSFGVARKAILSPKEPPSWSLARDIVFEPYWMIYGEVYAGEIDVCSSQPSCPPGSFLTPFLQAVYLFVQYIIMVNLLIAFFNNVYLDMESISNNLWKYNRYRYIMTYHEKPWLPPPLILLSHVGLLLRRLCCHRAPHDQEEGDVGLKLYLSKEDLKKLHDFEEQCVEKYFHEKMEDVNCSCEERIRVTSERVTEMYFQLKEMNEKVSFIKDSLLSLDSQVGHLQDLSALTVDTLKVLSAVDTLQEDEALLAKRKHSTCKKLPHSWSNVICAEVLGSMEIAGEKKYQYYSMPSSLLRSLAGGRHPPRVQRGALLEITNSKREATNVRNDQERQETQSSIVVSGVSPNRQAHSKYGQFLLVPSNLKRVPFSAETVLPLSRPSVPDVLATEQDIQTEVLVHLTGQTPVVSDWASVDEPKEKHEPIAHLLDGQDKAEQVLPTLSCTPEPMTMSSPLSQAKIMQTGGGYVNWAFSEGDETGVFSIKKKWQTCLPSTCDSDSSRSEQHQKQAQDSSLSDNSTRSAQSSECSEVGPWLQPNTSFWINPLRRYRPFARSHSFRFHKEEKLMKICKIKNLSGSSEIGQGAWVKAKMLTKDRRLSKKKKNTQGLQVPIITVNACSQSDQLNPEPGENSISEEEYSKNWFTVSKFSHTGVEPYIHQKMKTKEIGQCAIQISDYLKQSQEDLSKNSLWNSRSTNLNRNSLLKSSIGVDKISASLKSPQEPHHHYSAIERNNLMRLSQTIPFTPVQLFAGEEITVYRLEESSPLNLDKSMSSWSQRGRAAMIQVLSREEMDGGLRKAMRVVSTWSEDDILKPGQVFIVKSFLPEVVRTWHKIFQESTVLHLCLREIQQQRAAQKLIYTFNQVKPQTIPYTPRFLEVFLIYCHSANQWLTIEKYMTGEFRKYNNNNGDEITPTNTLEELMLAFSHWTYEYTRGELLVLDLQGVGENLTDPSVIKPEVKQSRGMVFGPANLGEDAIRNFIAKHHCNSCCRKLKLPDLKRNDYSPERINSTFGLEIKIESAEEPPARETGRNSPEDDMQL

CCNc1nc(Nc2ccc(C(=O)N3CCC(N4CCOCC4)CC3)cc2OC)nc2[nH]cc(C(F)(F)F)c12 [Example 104, (4-((4-(ethylamino)-5-(trifluoromethyl)-7H-pyrrolo[2,3-d]pyrimidine-2-yl)amino)-3-methoxyphenyl)(4-morpholinopiperidine-1-yl)methanone]
remaining binding at 1 µM [1]: 100% | remaining binding at 1 µM [2]: 0.95% | remaining binding at 1 µM [3]: 92% | remaining binding at 1 µM [4]: 100% | remaining binding at 1 µM [5]: 98% | remaining binding at 1 µM [6]: 100%

CNc1nc(Nc2ccc(C(=O)N3CCOCC3)cc2OC)nc2[nH]cc(C#N)c12 [Example 1, 2-((2-methoxy-4-(morpholine-4-carbonyl)phenyl)amino)-4-(methylamino)-7H-pyrrolo[2,3-d]pyrimidine-5-carbonitrile]
remaining binding at 1 µM [1]: 99% | remaining binding at 1 µM [2]: 0% | remaining binding at 1 µM [3]: 56% | remaining binding at 1 µM [4]: 85% | remaining binding at 1 µM [5]: 88% | remaining binding at 1 µM [6]: 93%

CC1(Nc2nc(Nc3cnn([C@H]4CCN(C5COC5)C[C@@H]4F)c3Cl)nc3[nH]cc(C#N)c23)CC1 [Example 52, 2-((5-chloro-1-((3S,4S)-3-fluoro-1-(oxetane-3-yl)piperidine-4-yl)-1H-pyrazole-4-yl)amino)((1-methylcyclopropyl)amino)-7H-pyrrolo[2,3-d]pyrimidine-5-carbonitrile]
remaining binding at 1 µM [1]: 34% | remaining binding at 1 µM [2]: 0.55% | remaining binding at 1 µM [3]: 11% | remaining binding at 1 µM [4]: 26% | remaining binding at 1 µM [5]: 93% | remaining binding at 1 µM [6]: 2.5%

— patent US11208412B2 (DAEGU-GYEONGBUK MEDICAL INNOVATION FOUNDATION, priority 2017, dated 2021)
